Laboratory results: patent US9415047B2, “Use of benzo five-membered nitrogen heterocyclic piperazine or piperidine derivatives” (Liaoning Emmy Biological Pharmaceutical Co., Ltd., priority 2012, dated 2016)
Values joined by “and” are separate entries in the source; they are usually repeats but may differ in a detail not shown here. Identical values can stand only once. “Also recorded” adds a separate entry of the source.

Key:
[1] = test system: AD constricted rabbit aorta; experiment: Relaxing effects on vascular smooth muscle constricted by adrenaline hydrochloride (AD) in vitro; conditions: Oryctolagus cuniculus; relaxation of rabbit aorta constricted by adrenaline (10^−5 mol/L); mean±SEM, n=5
Summary of the method: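 Rabbit aortic strips in K-H solution precontracted with adrenaline hydrochloride (10^−5 mol/L) after a reproducible second contraction; compounds added cumulatively over ranges from 1×10^−10 up to 1×10^−2 mol/L depending on the compound series. Relaxation expressed as % of maximal relaxation versus −log concentration, mean±SEM, n=5.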

[2] = test system: NA constricted rabbit aorta; experiment: Relaxing effects on vascular smooth muscle constricted by noradrenaline (NA) in vitro; conditions: Oryctolagus cuniculus; relaxation of rabbit aorta constricted by noradrenaline (10^−5 mol/L); mean±SEM, n=5
Summary of the method: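 Rabbit aortic rings in K-H solution, pre-tested with adrenaline (10^−5 mol/L), washed and re-equilibrated 60 min, then constricted with noradrenaline (10^−5 mol/L). Compounds added cumulatively from 1×10^−10 up to 1×10^−2 or 1×10^−3 mol/L; relaxation expressed as % of maximal relaxation versus −log concentration (mean±SEM, n=5).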

α1 receptor [3] = experiment: Antagonism of accumulative constriction of rabbit aorta by phenylephrine (α-receptor agonist); conditions: agonist (R)-phenylephrine
Experimental: PE was also added by using the same method 15 min later. […] The curve was shown in FIG. 21 after positive drug doxazosine mesylate (10^−7 mol/L) was added.

Calcium Channel (Ca^2+) = experiment: Antagonism of accumulative constriction of rabbit aorta by CaCl2; conditions: calcium free high kalium depolarization
Experimental: (§4) Rabbits were hit to be dizzy, with thoracic cavity quickly cut open, descending aorta exposed, connective tissues and surrounding fatty tissues (for hydroxytryptamine receptor antagonism test, endothelia should be removed with smooth stainless steel rod) removed, the aorta was cut into 3-5 mm vascular rings which were penetrated together with a steel wire with one end fixed on ventilation hook, another end on pressure tonotransducer. The aorta rings were put into a bath tube with 20 ml of nutritional solution, and the tension changes were recorded by using the recorder. The temperature of bath tube was maintained at 37±0.5° C., and mixed gas (95% O2+5% CO2) was ventilated at a rate of I-2 bubbles/second. The initial load of the sample was 1.5 g, nutritional solution was changed for every 20 min. The sample was balanced for 2 hours, and the experiment would be started when baseline became stable.
After sample tension became stable, calcium K-H solution was used to flush the sample for 3 times, and incubated with calcium free K-H solution for 40 min. Calcium free high kalium solution was added into the sample for depolarization for 20 min, then CaCl2 (10^−6-10^−2 mol/L) was added into bath tube till maximal response was achieved, and then waveform was recorded. Then K-H solution was used to flush the sample repeatedly, the K-H solution was changed for every 20 min, and the sample was balanced for 60 min. […]
After sample tension became stable, calcium K-H solution was used to flush the sample for 3 times, and incubated with calcium free K-H solution for 40 min. Calcium free high kalium solution was added into the sample for depolarization for 20 min, then CaCl2 (10^−6-10^−2 mol/L) was added into bath tube till maximal response was achieved, and then waveform was recorded. […] Calcium free high kalium solution was added into the sample for depolarization for 20 min, then amlodipine (10^−7 mol/L) was added into bath tube, which was incubated for 15 min, then CaCl2 (10^−6-10^−2 mol/L) was added by using the same method till maximal response was achieved, and then waveform was recorded. […]

[4] = Experiment on acute toxicity; conditions: both sexes, Kunming, mouse, in vivo, mice
Description: (§1) Kunming mice (Experimental Animal Center, China Medical University) were used, half male and half female, 18-22 g, brief probability unit method was used to test the acute toxicity of the compound.
(§2) Ten Kunming mice (Experimental Animal Center, China Medical University) were used, half male and half female, 18-22 g, brief probability unit method was used to test the acute toxicity of the compound.

Kunming mice [5] = experiment: Marrow micronucleus test on mice; assay type: in vivo; conditions: for micronuclei cells in 1000 polychromatic erythrocytes: dosed 4 days, test on day 5, II-2 120, II-85 74, cyclophosphane 60 mg/kg/day
Experimental: Ten Kunming mice (Experimental Animal Center, China Medical University), half male and half female, were used. Compound II-2 was administered via gastric gavage at 120 mg/kg/day, and II-85 was administered to 74 mg/kg/day. The drug was administered for 4 days continuously. Marrow micronucleus test was performed on day 5.
Mice in positive control group were administered cyclophosphane at 60 mg/kg/day. Mice in negative control group were administered normal saline at 0.1 ml/10 g/day. The drug was administered for 4 days continuously. Marrow micronucleus test was performed on day 5.
The mice were killed by snapping neck, and then femur and sternum were excised, with blood and muscles removed, epiphysis cut off. Then marrow from sternum was squeezed to clean glassslide with bovine serum by using a pair of hemostatic forceps, or marrow on femur was flushed directly with bovine serum onto clean glassslide. Then the substance on glassslide were mixed well and smeared. Then the prepared and dried marrow smears were put into staining tank with methanol, fixed for 15 min, picked out to dry in the open air. After marrow smears were dried, it would be stained in freshly prepared Giemsa solution (1 volume of Giemsa stock solution and 9 volumes of pH 6.8 phosphate buffer) for 10 min, staining solution was flushed away with little stream. Then the smear was dried in the open air and observed under a microscope.

SD rats = experiment: Effects on blood pressure of SD rats anesthetized with urethane; assay type: in vivo; conditions: for time until blood pressures recovered to those before drug dosing: anesthetized SD rats; for time until blood pressures recovered to those before drug dosing / hypotensive effects: gastric gavage; for oral absorption: in vivo bulk testing on rats; for hypotensive effects: rats
Experimental: (§3) Four SD rats were anesthetized with urethane ([…]), after vital signs became stable, blood pressure was measured by common carotid intubation. After blood pressure became stable, compound II-2 was administered at 4.0 mg/kg via gastric gavage, blood pressure changes with time were observed and recorded.
as §3, with “Five” for “Four”, “rats (provided by Experimental Animal Center, China Medical University)” for “rats”, “II-85” for “II-2”, “1.5” for “4.0”

5-HT2A receptor = 5-HT2A receptor (Oryctolagus cuniculus, UniProt G1SYA7); experiment: Antagonism of accumulative constriction of rabbit aorta by 5-HT
5-HT2A receptor, sequence (G1SYA7 1-469): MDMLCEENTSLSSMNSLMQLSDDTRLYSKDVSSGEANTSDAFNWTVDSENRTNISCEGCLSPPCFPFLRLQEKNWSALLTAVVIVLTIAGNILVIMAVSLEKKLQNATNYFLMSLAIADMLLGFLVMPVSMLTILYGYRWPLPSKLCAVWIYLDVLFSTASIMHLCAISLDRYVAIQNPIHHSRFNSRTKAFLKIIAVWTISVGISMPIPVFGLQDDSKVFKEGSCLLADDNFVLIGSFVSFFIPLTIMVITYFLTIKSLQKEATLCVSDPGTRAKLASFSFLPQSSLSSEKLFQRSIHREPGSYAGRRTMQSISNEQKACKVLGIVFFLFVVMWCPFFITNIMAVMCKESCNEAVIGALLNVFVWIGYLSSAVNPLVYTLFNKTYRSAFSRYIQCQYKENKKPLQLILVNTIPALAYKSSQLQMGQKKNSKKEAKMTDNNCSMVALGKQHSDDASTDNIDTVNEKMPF
Experimental: as §4
After sample tension became stable, a piece of waveform was recorded, 5-HT (10^−7-3×10^−4 mol/L) was added into the bath tube until maximal response, then waveform was recorded. […] 5-HT was also added by using the same method 20 min later. The maximal response was considered 100%, 5-HT constriction percentage was used as Y axis, negative logarithms of different concentrations of 5-HT were used as X axis to draw dose effective curve.
After sample tension became stable, a piece of waveform was recorded, 5-HT (10^−8-10^−3 mol/L) was added into the bath tube until maximal response, then waveform was recorded. […] 5-HT was also added by using the same method 20 min later. The maximal response was considered 100%, 5-HT constriction percentage was used as Y axis, negative logarithms of different concentrations of 5-HT were used as X axis to draw dose effective curve (data were expressed in mean±SEM ( ? ), *P<0.05, **P<0.01, n=7).
After sample tension became stable, a piece of waveform was recorded, 5-HT (10^−8-3×10^−4 mol/L) was added into the bath tube until maximal response, then waveform was recorded. […] 5-HT was also added by using the same method 20 min later. […]

α1 receptor [6] = experiment: Antagonism of accumulative constriction of rabbit aorta by noradrenaline (α-receptor agonist)
Experimental: Then samples were flushed with K-H solution repeatedly, K-H solution was changed for every 20 min, and the samples were balanced for 60 min. After baseline recovered to be stable, doxazosin (10^−7 mol/L) was added, and noradrenaline (NA) (10^−8-6×10^−5 mol/L) was added by using the same method 15 min later.
NA was also added by using the same method 15 min later.

[7] = test system: high kalium concentration constricted rabbit aorta; experiment: Relaxing effects on vascular smooth muscle constricted by high kalium concentration in vitro; conditions: Oryctolagus cuniculus, relaxation of rabbit aorta constricted by high kalium solution (K+ 60 mmol/L); mean±SEM, n=5
Summary of the method: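 Rabbit aortic rings pre-challenged with adrenaline (10^−5 mol/L), washed and re-equilibrated 60 min in K-H solution, then constricted with high-K+ solution; compounds added cumulatively over 1×10^−10–1×10^−2 mol/L depending on series. Relaxation expressed as % of maximal relaxation vs −log concentration; mean±SEM, n=5.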

Kunming mice [8] = experiment: Experiment on acute toxicity; conditions: mouse, in vivo
Description: as §1, §2

[9] = 1.5 mg/kg gastric gavage, 0 min post dosing, n = 5
[10] = 1.5 mg/kg gastric gavage, 15 min post dosing, n = 5
[11] = 1.5 mg/kg gastric gavage, 30 min post dosing, n = 5
[12] = 1.5 mg/kg gastric gavage, 60 min post dosing, n = 5
[13] = 1.5 mg/kg gastric gavage, 90 min post dosing, n = 5
[14] = 1.5 mg/kg gastric gavage, 120 min post dosing, n = 5
[15] = 1.5 mg/kg gastric gavage, 150 min post dosing, n = 5
[16] = 1.5 mg/kg gastric gavage, 180 min post dosing, n = 5
[17] = 1.5 mg/kg gastric gavage, 210 min post dosing, n = 5
[18] = 1.5 mg/kg gastric gavage, 240 min post dosing, n = 5
[19] = 4.0 mg/kg gastric gavage, 0 min post dosing, n = 4
[20] = 4.0 mg/kg gastric gavage, 15 min post dosing, n = 4
[21] = 4.0 mg/kg gastric gavage, 30 min post dosing, n = 4
[22] = 4.0 mg/kg gastric gavage, 60 min post dosing, n = 4
[23] = 4.0 mg/kg gastric gavage, 90 min post dosing, n = 4
[24] = 4.0 mg/kg gastric gavage, 120 min post dosing, n = 4
[25] = 4.0 mg/kg gastric gavage, 150 min post dosing, n = 4
[26] = 4.0 mg/kg gastric gavage, 180 min post dosing, n = 4
[27] = 4.0 mg/kg gastric gavage, 210 min post dosing, n = 4

Fc1ccc2c(C3CCN(CCCn4nnc5ccccc54)CC3)noc2c1 [II-85, N-(3-(1H-benzotriazole-1-yl)propyl)4-(3-(6-fluorobenzisoxazolyl))piperidine]
EC50 [1]: 50.1 nM | EC50 [2]: 30.9 nM | PA2 value to resist constriction of rabbit aorta by PE (α1 receptor [3]): 8.62±0.11 | PA2 value to resist constriction of rabbit aorta by CaCl2 (Calcium Channel (Ca^2+)): 6.10±0.13 | LD50 ([4]; intraperitoneal, intraabdominal injection): 108 mg/kg | LD50 ([4]; po, gastric gavage): 222 mg/kg | marrow micronucleus test result (Kunming mice [5]): negative | micronuclei cells in 1000 polychromatic erythrocytes (Kunming mice [5]): 2.5±0.373% | diastolic blood pressure (DBP) (SD rats; [9]): 103.06 mmHg | mean artery pressure (MAP) (SD rats; [9]): 116.63 mmHg | systolic blood pressure (SBP) (SD rats; [9]): 143.77 mmHg | diastolic blood pressure (DBP) (SD rats; [10]): 75.36 mmHg | mean artery pressure (MAP) (SD rats; [10]): 91.98 mmHg | systolic blood pressure (SBP) (SD rats; [10]): 125.22 mmHg | diastolic blood pressure (DBP) (SD rats; [11]): 68.68 mmHg | mean artery pressure (MAP) (SD rats; [11]): 84.42 mmHg | systolic blood pressure (SBP) (SD rats; [11]): 115.90 mmHg | diastolic blood pressure (DBP) (SD rats; [12]): 75.49 mmHg | mean artery pressure (MAP) (SD rats; [12]): 91.24 mmHg | systolic blood pressure (SBP) (SD rats; [12]): 122.75 mmHg | diastolic blood pressure (DBP) (SD rats; [13]): 83.32 mmHg | mean artery pressure (MAP) (SD rats; [13]): 97.37 mmHg | systolic blood pressure (SBP) (SD rats; [13]): 125.48 mmHg | diastolic blood pressure (DBP) (SD rats; [14]): 83.71 mmHg | mean artery pressure (MAP) (SD rats; [14]): 96.77 mmHg | systolic blood pressure (SBP) (SD rats; [14]): 122.89 mmHg | diastolic blood pressure (DBP) (SD rats; [15]): 95.06 mmHg | mean artery pressure (MAP) (SD rats; [15]): 108.73 mmHg | systolic blood pressure (SBP) (SD rats; [15]): 136.08 mmHg | diastolic blood pressure (DBP) (SD rats; [16]): 86.22 mmHg | mean artery pressure (MAP) (SD rats; [16]): 100.11 mmHg | systolic blood pressure (SBP) (SD rats; [16]): 127.90 mmHg | diastolic blood pressure (DBP) (SD rats; [17]): 97.96 mmHg | mean artery pressure (MAP) (SD rats; [17]): 111.02 mmHg | systolic blood pressure (SBP) (SD rats; [17]): 137.13 mmHg | diastolic blood pressure (DBP) (SD rats; [18]): 102.84 mmHg | mean artery pressure (MAP) (SD rats; [18]): 115.95 mmHg | systolic blood pressure (SBP) (SD rats; [18]): 142.19 mmHg | time until blood pressures recovered to those before drug dosing (SD rats): 6 h | oral absorption (SD rats): good oral absorption | hypotensive effects (SD rats): obvious hypotensive effects; also recorded: good hypotensive effects | Kb (5-HT2A receptor): 0.871 nM

COc1cc2nc(N3CCN(C(=O)C4COc5ccccc5O4)CC3)nc(N)c2cc1OC (stereo not drawn) [doxazosin, reference compound]
PA2 value to resist constriction of rabbit aorta by NA (α1 receptor [6]): 7.52±0.04 and 7.76±0.24 | PA2 value to resist constriction of rabbit aorta by PE (α1 receptor [3]): 7.43±0.12

FC(F)(F)c1cccc(N2CCN(CCCCn3cnc4ccccc43)CC2)c1 [II-2, 1-(4-(4-(3-trifluoromethylphenyl)piperazine-1-yl)butyl)-1H-benzimidazole]
EC50 [1]: 1860 nM | EC50 [7]: 4570 nM | PA2 value to resist constriction of rabbit aorta by NA (α1 receptor [6]): 7.37±0.08 | PA2 value to resist constriction of rabbit aorta by CaCl2 (Calcium Channel (Ca^2+)): 5.61±0.04 | LD50 ([4]; po, gastric gavage): 362 mg/kg | therapeutic index (Kunming mice [8]): great therapeutic index | toxicity (Kunming mice [8]): mild toxicity | marrow micronucleus test result (Kunming mice [5]): negative | micronuclei cells in 1000 polychromatic erythrocytes (Kunming mice [5]): 2.0±0.333% | diastolic blood pressure (DBP) (SD rats; [19]): 75.92 mmHg | mean artery pressure (MAP) (SD rats; [19]): 91.50 mmHg | systolic blood pressure (SBP) (SD rats; [19]): 122.66 mmHg | diastolic blood pressure (DBP) (SD rats; [20]): 62.21 mmHg | mean artery pressure (MAP) (SD rats; [20]): 73.40 mmHg | systolic blood pressure (SBP) (SD rats; [20]): 95.77 mmHg | diastolic blood pressure (DBP) (SD rats; [21]): 61.84 mmHg | mean artery pressure (MAP) (SD rats; [21]): 74.52 mmHg | systolic blood pressure (SBP) (SD rats; [21]): 99.88 mmHg | diastolic blood pressure (DBP) (SD rats; [22]): 58.04 mmHg | mean artery pressure (MAP) (SD rats; [22]): 72.77 mmHg | systolic blood pressure (SBP) (SD rats; [22]): 102.22 mmHg | diastolic blood pressure (DBP) (SD rats; [23]): 53.86 mmHg | mean artery pressure (MAP) (SD rats; [23]): 68.81 mmHg | systolic blood pressure (SBP) (SD rats; [23]): 98.71 mmHg | diastolic blood pressure (DBP) (SD rats; [24]): 69.10 mmHg | mean artery pressure (MAP) (SD rats; [24]): 83.12 mmHg | systolic blood pressure (SBP) (SD rats; [24]): 111.16 mmHg | diastolic blood pressure (DBP) (SD rats; [25]): 70.79 mmHg | mean artery pressure (MAP) (SD rats; [25]): 84.47 mmHg | systolic blood pressure (SBP) (SD rats; [25]): 111.82 mmHg | diastolic blood pressure (DBP) (SD rats; [26]): 71.08 mmHg | mean artery pressure (MAP) (SD rats; [26]): 84.83 mmHg | systolic blood pressure (SBP) (SD rats; [26]): 112.34 mmHg | diastolic blood pressure (DBP) (SD rats; [27]): 75.26 mmHg | mean artery pressure (MAP) (SD rats; [27]): 88.54 mmHg | systolic blood pressure (SBP) (SD rats; [27]): 115.12 mmHg | time until blood pressures recovered to those before drug dosing (SD rats): 3.5 h | oral absorption (SD rats): good oral absorption | hypotensive effects (SD rats): good hypotensive effects; also recorded: obvious hypotensive effects | Kb (5-HT2A receptor): 1950 nM
